The first assay deals with B16. In words: Cytotoxicity against Mus musculus (mouse) B16 cells after 3 days by MTT assay. The assay is classed as functional, cell-based. The conditions noted are these: B16, 72 h. (Formazan colour is commonly taken as a measure of viable cells.)
What is called IC50 is the concentration needed to halve the response being measured. Read a low IC50 as higher potency. `COc1ccc(OC)c(C(=O)/C=C/c2ccc([N+](=O)[O-])cc2)c1` showed an IC50 greater than 100 µM.
Molecule `COc1ccc(OC)c(/C=C/C(=O)c2ccc(OC)c(N)c2)c1` registered an IC50 of 5.6 µM.
`COc1ccc(OC)c(/C=C/C(=O)c2ccc(OC)c([N+](=O)[O-])c2)c1` yielded an IC50 of 13 µM.
As for `COc1ccc(C(=O)/C=C/c2ccccc2)cc1[N+](=O)[O-]`, the IC50 was greater than 100 µM.
In the case of `COc1ccc(C(=O)/C=C/c2ccccc2)cc1N`, the IC50 was greater than 100 µM.
The same measure, in the same setting: in the case of `COc1ccc(/C=C/C(=O)c2ccc(OC)c([N+](=O)[O-])c2)cc1` it was greater than 100 µM; in that of `COc1ccc(/C=C/C(=O)c2ccc(OC)c(N)c2)cc1`, 43 µM; in that of `COc1cccc(/C=C/C(=O)c2ccc(OC)c([N+](=O)[O-])c2)c1`, greater than 100 µM.
The molecule `COc1cccc(/C=C/C(=O)c2ccc(OC)c(N)c2)c1` yielded an IC50 of 33 µM.
As for `COc1cc(/C=C/C(=O)c2ccc(OC)c([N+](=O)[O-])c2)cc(OC)c1`, half-maximal inhibition (IC50) was put at 5.6 µM.
Turning to `COc1cc(/C=C/C(=O)c2ccc(OC)c(N)c2)cc(OC)c1`, the IC50 was determined as 8.8 µM.
Take `COc1ccc(/C=C/C(=O)c2ccc(OC)c([N+](=O)[O-])c2)cc1OC`: the IC50 was greater than 100 µM.
In the case of `COc1ccc(C(=O)/C=C/c2ccc(OC)c(OC)c2)cc1N`, it took 18 µM to reach half-maximal inhibition (IC50). That is a double-digit micromolar value.
With `COc1ccc(C(=O)/C=C/c2cc(OC)c(OC)c(OC)c2)cc1[N+](=O)[O-]`, the IC50 was greater than 100 µM.
On to `COc1ccc(C(=O)/C=C/c2cc(OC)c(OC)c(OC)c2)cc1N`, for which the IC50 worked out at 67 µM.
In turn, `COc1ccc(OC)c(C(=O)/C=C/c2ccc(N)cc2)c1` showed an IC50 greater than 100 µM.
Still for that read-out and setting: next, `COc1ccc(OC)c(C(=O)/C=C/c2ccc(OC)c([N+](=O)[O-])c2)c1`: greater than 100 µM; `COc1ccc(OC)c(C(=O)/C=C/c2ccc(OC)c(N)c2)c1`: 2 µM; `COc1cc(C(=O)/C=C/c2ccc(N)cc2)cc(OC)c1OC`: 30 µM.
In turn, `COc1ccc(/C=C/C(=O)c2cc(OC)c(OC)c(OC)c2)cc1N` showed an IC50 of 0.24 µM.
Molecule `COc1ccc(/C=C/C(=O)c2cc(OC)c(OC)c(OC)c2)cc1[N+](=O)[O-]` had an IC50 greater than 100 µM.
Same read-out and setting: in the case of `COc1cc(C(=O)/C=C/c2ccc([N+](=O)[O-])cc2)cc(OC)c1OC` it was greater than 100 µM.

For a further assay, the system named is HeLa. In words: Cytotoxicity against Homo sapiens (human) HeLa cells. The assay is classed as functional, cell-based.
Details: not given
Regarding `COc1cc(C(=O)/C=C/c2ccc(N)cc2)cc(OC)c1OC`, inhibition was half-maximal at 0.48 µM (IC50).
As to `COc1cc(C(=O)/C=C/c2ccc([N+](=O)[O-])cc2)cc(OC)c1OC`, half-maximal inhibition (IC50) required 73 µM.

For the origin of these results see ChEMBL document CHEMBL3045661, “SYNTHESIS AND CYTOTOXIC PROPERTIES OF NITRO- AND AMINOCHALCONES” (Med Chem Res, 2005).
